According to ChEMBL document CHEMBL5120927, “LEGO-Lipophosphonoxins: A Novel Approach in Designing Membrane Targeting Antimicrobials” (J Med Chem, 2022):

Legend:
Staphylococcus aureus [1] = experiment: Antibacterial activity against Staphylococcus aureus ATCC 29213 = CCM 4223 assessed as inhibition of bacterial growth incubated for 24 hrs by microdilution assay; type: functional
Escherichia coli [2] = experiment: Antibacterial activity against multidrug-resistant Escherichia coli CE5556 expressing CTX-M-15 assessed as reduction in microbial growth incubated for 24 hrs by microdilution assay; type: functional
Pseudomonas aeruginosa [3] = experiment: Antibacterial activity against multidrug-resistant Pseudomonas aeruginosa assessed as reduction in microbial growth incubated for 24 hrs by microdilution assay; type: functional
Staphylococcus aureus [4] = experiment: Antibacterial activity against methicillin resistant Staphylococcus aureus 4591/A assessed as reduction in microbial growth incubated for 24 hrs by microdilution assay; type: functional
Enterococcus faecalis = experiment: Antibacterial activity against Enterococcus faecalis ATCC 29212 = CCM 4224 assessed as inhibition of bacterial growth incubated for 24 hrs by microdilution assay; type: functional
Staphylococcus aureus [5] = experiment: Antibacterial activity against Staphylococcus aureus ATCC 29213 = CCM 4223 assessed as inhibition of bacterial growth incubated for 24 hrs in presence of BSA by microdilution assay; type: functional
[6] = test system: Staphylococcus epidermidis; experiment: Antibacterial activity against Staphylococcus epidermidis CCM 7221 assessed as inhibition of bacterial growth incubated for 24 hrs by microdilution assay; type: functional
Escherichia coli [7] = experiment: Antibacterial activity against Escherichia coli ATCC 25922 = CCM 3954 assessed as inhibition of bacterial growth incubated for 24 hrs in presence of BSA by microdilution assay; type: functional
Pseudomonas aeruginosa [8] = experiment: Antibacterial activity against Pseudomonas aeruginosa ATCC 27853 = CCM 3955 assessed as inhibition of bacterial growth incubated for 24 hrs by microdilution assay; type: functional
[9] = Hemolytic activity in human RBC assessed as haemoglobin release measured after 3 hr; type: toxicity, cell-based, Erythrocyte; settings: red blood cells (erythrocytes)
Enterococcus faecium = experiment: Antibacterial activity against vancomycin resistant Enterococcus faecium 419/ANA assessed as reduction in microbial growth incubated for 24 hrs by microdilution assay; type: functional
Escherichia coli [10] = experiment: Antibacterial activity against Escherichia coli ATCC 25922 = CCM 3954 assessed as inhibition of bacterial growth incubated for 24 hrs by microdilution assay; type: functional
[11] = Gradient chromatographic hydrophobicity index of the compound at pH 3.7 by HPLC analysis; type: ADME

SMILES	MIC (Staphylococcus aureus [1])	MIC (Escherichia coli [2])	MIC (Pseudomonas aeruginosa [3])	MIC (Staphylococcus aureus [4])	MIC (Enterococcus faecalis)	MIC (Staphylococcus aureus [5])	MIC [6]	MIC (Escherichia coli [7])	MIC (Pseudomonas aeruginosa [8])	HC50 at 3 h [9]	MIC (Enterococcus faecium)	MIC (Escherichia coli [10])	CHI [11]
CC/C=C\CCCOP(=O)(CCN(CCCN)CCCN)OCCCCCCOP(=O)(CCN(CCCN)CCCN)OCCC/C=C\CC.Cl.Cl.Cl.Cl.Cl.Cl (centres undefined)	8 mg/L	64 mg/L	> 128 mg/L	16 mg/L	128 mg/L	16 mg/L	4 mg/L	128 mg/L	> 128 mg/L	> 200 µg/mL	> 128 mg/L	64 mg/L	2.4
CCCCCOP(=O)(CCN(CCCN)CCCN)OCCCCCCCCCCOP(=O)(CCN(CCCN)CCCN)OCCCCC.Cl.Cl.Cl.Cl.Cl.Cl (centres undefined)	2 mg/L	128 mg/L	8 mg/L	2 mg/L	32 mg/L	8 mg/L	1 mg/L	> 128 mg/L	16 mg/L	159 µg/mL	128 mg/L	2 mg/L	31.3
Cl.Cl.Cl.Cl.Cl.Cl.NCCCN(CCCN)CCP(=O)(OCCCCCCOP(=O)(CCN(CCCN)CCCN)OCCCC1CCCCC1)OCCCC1CCCCC1 (centres undefined)	1 mg/L	1 mg/L	4 mg/L	1 mg/L	2 mg/L	1 mg/L	0.5 mg/L	0.5 mg/L	4 mg/L	183 µg/mL	16 mg/L	1 mg/L	36.4
CCCCCOP(=O)(CCN(CCN)CCN)OCCCCCCCCOP(=O)(CCN(CCN)CCN)OCCCCC.Cl.Cl.Cl.Cl.Cl.Cl (centres undefined)	8 mg/L	> 128 mg/L	> 128 mg/L	8 mg/L	> 128 mg/L	8 mg/L	2 mg/L	> 128 mg/L	> 128 mg/L	> 200 µg/mL	> 128 mg/L	2 mg/L	34.7
Cl.Cl.Cl.Cl.Cl.Cl.NCCCN(CCCN)CCP(=O)(OCCCCCCCOP(=O)(CCN(CCCN)CCCN)OCCCC(F)(F)F)OCCCC(F)(F)F (centres undefined)	> 128 mg/L	> 128 mg/L	> 128 mg/L	> 128 mg/L	> 128 mg/L	> 128 mg/L	128 mg/L	> 128 mg/L	> 128 mg/L	> 200 µg/mL	> 128 mg/L	128 mg/L	24.6
CCCCCCCCOP(=O)(CCN(CCCN)CCCN)OCCCCCCCCOP(=O)(CCN(CCCN)CCCN)OCCCCCCCC.Cl.Cl.Cl.Cl.Cl.Cl (centres undefined)	0.5 mg/L	1 mg/L	2 mg/L	5 mg/L	1 mg/L	0.25 mg/L	3 mg/L	0.5 mg/L	2 mg/L	683 µg/mL	4 mg/L	1 mg/L	38.7
CCCCCCOP(=O)(CCN(CCN)CCN)OCCCCCCCCOP(=O)(CCN(CCN)CCN)OCCCCCC.Cl.Cl.Cl.Cl.Cl.Cl (centres undefined)	2 mg/L	64 mg/L	64 mg/L	2 mg/L	16 mg/L	1 mg/L	2 mg/L	16 mg/L	32 mg/L	231 µg/mL	128 mg/L	8 mg/L	38.6
CCC/C=C\CCOP(=O)(CCN(CCCN)CCCN)OCCCCCCCCOP(=O)(CCN(CCCN)CCCN)OCC/C=C\CCC.Cl.Cl.Cl.Cl.Cl.Cl (centres undefined)	8 mg/L	16 mg/L	128 mg/L	4 mg/L	64 mg/L	8 mg/L	2 mg/L	64 mg/L	128 mg/L	> 200 µg/mL	> 128 mg/L	1 mg/L	32.8
